# Reference: PMC10115881, “Disrupting the α-synuclein-ESCRT interaction with a peptide inhibitor mitigates neurodegeneration in preclinical models of Parkinson’s disease” (Nature Communications, 2023)
# Values joined by “and” are separate entries in the source; they are usually repeats but may differ in a detail not shown here. Identical values can stand only once.
# Key:
# [1] = system: endogenous a-syn in SNCA triplication fibroblasts; experiment: a-syn immunofluorescence in SNCA triplication fibroblasts; format: cell-based, human
# Excerpt: Fig. 6 PDpep1.3 reduces endogenous a-syn levels and rescues lysosomal activity in human PD cell models. A Representative images of fibroblasts from a PD patient with SNCA triplication transduced with Scramble1.3-RFP or PDpep1.3-RFP (scale bars = 10 µm). B Quantification of relative a-syn fluorescence in RFP-positive fibroblasts. Bars represent means ± s.e.m. (one-way ANOVA, F(3, 36) = 6.159; P = 0.0017 followed by Dunnett’s post-test; n = 3). C Endolysosomal flux assay using confocal microscopy in SNCA triplication fibroblasts transduced with AAV-Scramble1.3-RFP or AAV-PDpep1.3-RFP. Cells were treated as indicated with Bafilomycin A1 (Baf). Bars represent means ± s.e.m. (nested one-way ANOVA, F(3, 10) = = 23.70; P < 0.0001 followed by Dunnett’s post-test; n = 3). D Representative images of human iPSC-derived dopaminergic neurons with A53T a-syn mutation or isogenic controls without a-syn mutation. These iPSC-derived dopaminergic neurons were transduced with Scramble1.3-RFP or PDpep1.3-RFP and immunostained with anti-a-syn, anti-TH, or anti-LAMP1 antibodies (scale bars = 5 μm). E Quantification of relative a-syn fluorescence intensity in RFP-positive A53T mutant and control iPSC-derived dopaminergic neurons. Bars represent means ± s.e.m. […] F Quantification of relative LAMP1 fluorescence intensity in RFP-positive A53T mutant and control iPSC-derived dopaminergic neurons. […]
# V1S/SV2 a-syn rats = experiment: AAV-V1S/SV2 a-syn oligomer rat model; format: in vivo
# Experimental: Adult female Sprague-Dawley rats (250–280 g; Envigo) were pair-housed in cages with wood bedding and had access to food and water ad libitum. The animal colony was maintained in a regular 12 h light/dark cycle. All procedures were approved by the University Health Network Animal Care Committee in accordance with guidelines and regulations set by the Canadian Council on Animal Care (AUP #3818).
# Animals were secured in a stereotactic frame under isoflurane/oxygen anesthesia and ketoprofen (5 mg/kg) analgesia. The surgical site was shaved and sterilized with iodine/betadine prior to making a 2 cm incision along the midline. The scalp was exposed and a unilateral injection targeting the SN was performed at coordinates AP −5.2 mm, ML −2 mm and DV −7.5 mm with respect to the bregma as a point of reference. For each animal, a total volume of 2 μl of virus was injected at a rate of 0.5 μl/min using a microinjection pump and 10 μl Hamilton syringe with a 26-gauge needle. […] At the end of virus injection, the needle remained in place for 5 min before gradual removal.
# Sections were then incubated in blocking solution (1% or 2% BSA, 10% normal goat serum in PBS-T) for 1 h. After blocking, sections were incubated with primary antibodies in antibody solution (2% normal goat serum in PBS-T) overnight at RT. Sections were then washed in PBS or PBS-T and incubated with secondary antibodies diluted in antibody solution for 1 h in the dark at room temperature. Sections were then mounted onto glass slides and allowed to dry and then Dako fluorescence mounting medium (Agilent) was applied, followed by coverslips.
# Confocal images of immunofluorescent staining were acquired with a Zeiss LSM880 confocal microscope equipped with 405, 488, 555, and 639 nm laser lines. All images were taken within the linear range at constant gain and pinhole settings at optimal resolution settings determined by the software. For primary cortical neurons and iPSC-derived dopaminergic neurons, the software was programmed to acquire an image every 1 μm for a total of 11 μm, capturing all of the neurons visible in the z-plane in each field of view using a ×63 objective. At least 30 images were acquired for each treatment group from three independent experiments. For animal experiments, the whole midbrain or striatum regions were imaged using a ×5 or ×10 objective. Ten serial coronal midbrain sections were imaged per animal, separated by 240 μm intervals. […]
# Confocal images of immunofluorescent staining of midbrain sections were processed using HALO software (Indica Labs), which is a well validated tool for automatic quantification of neurons in brain tissue sections[70]–[72]. […] Fluorescent intensity and area were then assessed in this ROI.
sequence,measurement,setting,value
DEEIERQLKALG [PDpep1.3],Effect on a-syn fluorescence in fibroblasts,[1],reduced a-syn fluorescence
same,Effect on a-syn levels in presence of Bafilomycin A1,[1]; + Bafilomycin A1,could not reduce a-syn levels
same,"Effect on a-syn oligomer levels, YFP positive area","V1S/SV2 a-syn rats; 6 weeks post-injection, SN",significant reduction in a-syn oligomer levels
same,TH fluorescence in striatum,"V1S/SV2 a-syn rats; V1S/SV2, 6 weeks, individual rats",0.2276 and 0.1447 and 0.1385 and 0.1997 and 0.2935 and 0.176 and 0.1626 and 0.2047 and 0.2584 and 0.2974
same,YFP mean fluorescence intensity in TH+ and RFP+ SN cells,"V1S/SV2 a-syn rats; V1S/SV2, 6 weeks, n = 8–9 rats/group",0.063 ± 0.0167 RFU
same,Effect on pS129 a-syn in striatum,V1S/SV2 a-syn rats; V1S/SV2 rats,reduced pS129 a-syn accumulation in the striatum
